Substitutions are numbered along the chain they refer to. Like-named read-outs stand apart in the source and are kept apart here.
Experiments:
[1] = target: T1, L309A mutant AhR (Mus musculus, UniProt P30561, L309A); test: AhR DNA binding (gel retardation) assay, L309A mutant AhR; format: biochemical; settings: L309A substitution; relative to wt mAhR activated by TCDD; single maximal ligand concentration
T1 construct: made in house; host or cells: in vitro transcription/translation (rabbit reticulocyte lysate)
Protocol: Wild-type and mutant mAhRs and mARNT were synthesized in vitro in the presence of unlabeled L-methionine, the resulting mAhRs and mARNT translation mixtures and MEDGK (25 mM MOPS (3-(N-morpholino)propanesulfonic acid; pH 7.5), 1 mM EDTA, 1 mM dithiothreitol, 10% (v/v) glycerol, 150 mM KCl) were mixed in a 1:1:8 (v/v/v) ratio and incubated with DMSO (1% final concentration) or the indicated concentration of TCDD or test chemical for 2 hours at room temperature. An aliquot of each incubation was mixed with [^32P]-labeled double-stranded oligonucleotide containing the mouse AhR DNA binding site DRE3 (a dioxin responsive element from the upstream region of the murine Cyp1a1 gene[71]) and protein-DNA complexes resolved by gel retardation analysis as previously described in detail. Gels were visualized using a FLA9000 Fujifilm Imager and protein-DNA complexes quantitated with Fujifilm MultiGauge software. For potency measurements, reactions were incubated with increasing concentrations of the test chemical and the chemical concentration producing half maximal AhR:ARNT:DRE complex formation (EC50) determined.

[2] = target: T2, M334A mutant AhR (Mus musculus, UniProt P30561, M334A); test: [3H]TCDD competitive ligand binding, M334A mutant AhR; settings: for change of relative binding affinity versus wild-type AhR: M334A substitution, in words; for IC50: Table S6, AhR mutant M334A
T2 construct: made in house; host or cells: in vitro, Promega TNT Quick rabbit reticulocyte lysate
T2 sequence (P30561 10-848 M334A): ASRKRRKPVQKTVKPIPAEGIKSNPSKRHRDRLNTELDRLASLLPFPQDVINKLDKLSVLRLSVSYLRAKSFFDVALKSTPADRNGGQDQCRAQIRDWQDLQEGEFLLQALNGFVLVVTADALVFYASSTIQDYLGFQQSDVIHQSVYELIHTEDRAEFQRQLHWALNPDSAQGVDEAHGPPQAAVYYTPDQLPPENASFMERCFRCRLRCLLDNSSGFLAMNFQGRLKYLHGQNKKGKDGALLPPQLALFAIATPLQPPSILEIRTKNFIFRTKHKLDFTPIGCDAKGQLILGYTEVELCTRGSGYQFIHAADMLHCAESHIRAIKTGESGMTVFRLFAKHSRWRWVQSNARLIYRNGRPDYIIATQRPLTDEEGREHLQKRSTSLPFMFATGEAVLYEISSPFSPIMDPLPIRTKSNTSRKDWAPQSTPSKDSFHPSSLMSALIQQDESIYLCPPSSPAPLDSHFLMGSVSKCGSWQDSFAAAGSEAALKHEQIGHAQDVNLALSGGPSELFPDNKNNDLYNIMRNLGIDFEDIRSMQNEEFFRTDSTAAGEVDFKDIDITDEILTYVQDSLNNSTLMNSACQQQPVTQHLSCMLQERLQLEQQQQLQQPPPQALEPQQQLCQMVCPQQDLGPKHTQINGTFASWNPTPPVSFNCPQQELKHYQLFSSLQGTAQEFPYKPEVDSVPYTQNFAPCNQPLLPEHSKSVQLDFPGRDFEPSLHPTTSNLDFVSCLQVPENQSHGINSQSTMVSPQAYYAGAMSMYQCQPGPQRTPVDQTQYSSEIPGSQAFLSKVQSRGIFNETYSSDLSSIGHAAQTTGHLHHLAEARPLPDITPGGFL
Protocol: (§1) The mouse AhR (mAhR) and ARNT (mARNT) expression plasmids, mβAhR/pcDNA3 and mβArnt/pcDNA3, have been previously described. Point mutations of mβAhR/pcDNA3 were carried out using the QuikChange Lightning Mutagenesis Kit (Agilent Technologies) and all constructs were verified by sequencing.
(§2) [^3H]TCDD specific binding to wild-type or mutant mAhRs synthesized in vitro using the Promega TNT Quick coupled transcription/translation rabbit reticulocyte lysate kit (Madison, WI) was carried out as previously described. [^3H]TCDD specific binding was determined by subtracting the amount of [^3H]TCDD bound to unprogrammed lysate (nonspecific binding) from the total amount of [^3H]TCDD binding to lysate containing in vitro expressed AhR. The amount of [^3H]TCDD specific binding remaining in the presence of the indicated competitor chemical was expressed as a percent of the total [^3H]TCDD specific binding. The relative binding affinity (IC50) of each chemical was determined from concentration-dependent competitive inhibition curves obtained using [^3H]TCDD and increasing concentrations of each test chemical and the mean IC50 value was determined using three-parameter non-linear regression.

[3] = target: T3, C327A mutant AhR (Mus musculus, UniProt P30561, C327A); test: [3H]TCDD competitive ligand binding, C327A mutant AhR; settings: for change of relative binding affinity versus wild-type AhR: C327A mutation, in words; for IC50: Table S6, AhR mutant C327A
T3 construct: made in house; host or cells: in vitro, Promega TNT Quick rabbit reticulocyte lysate
T3 sequence (P30561 10-848 C327A): T2 sequence (P30561 10-848 M334A) with C318A, A325M
Protocol: as §1, §2

T1 sequence (P30561 10-848 L309A): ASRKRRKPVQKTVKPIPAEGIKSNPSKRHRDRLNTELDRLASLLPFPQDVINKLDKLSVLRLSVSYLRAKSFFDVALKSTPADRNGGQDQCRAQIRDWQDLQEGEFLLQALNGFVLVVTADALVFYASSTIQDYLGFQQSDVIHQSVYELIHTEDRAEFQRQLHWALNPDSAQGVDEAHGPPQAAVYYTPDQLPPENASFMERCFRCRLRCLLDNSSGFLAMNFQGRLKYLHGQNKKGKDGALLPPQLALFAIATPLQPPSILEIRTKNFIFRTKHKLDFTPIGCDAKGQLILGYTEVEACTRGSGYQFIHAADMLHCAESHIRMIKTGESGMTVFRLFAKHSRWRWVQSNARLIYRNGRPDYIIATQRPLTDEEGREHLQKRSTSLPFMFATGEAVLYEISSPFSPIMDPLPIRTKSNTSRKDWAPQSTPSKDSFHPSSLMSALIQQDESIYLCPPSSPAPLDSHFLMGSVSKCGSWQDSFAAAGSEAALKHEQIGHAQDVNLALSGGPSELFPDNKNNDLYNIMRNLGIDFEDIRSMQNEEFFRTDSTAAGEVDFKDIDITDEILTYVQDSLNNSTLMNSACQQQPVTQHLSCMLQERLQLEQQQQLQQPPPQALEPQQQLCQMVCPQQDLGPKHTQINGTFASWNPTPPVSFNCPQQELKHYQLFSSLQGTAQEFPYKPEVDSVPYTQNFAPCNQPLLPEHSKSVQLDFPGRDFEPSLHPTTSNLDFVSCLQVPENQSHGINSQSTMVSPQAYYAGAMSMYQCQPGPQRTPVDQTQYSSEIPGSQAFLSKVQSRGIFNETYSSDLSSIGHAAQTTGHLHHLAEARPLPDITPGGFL
T1 sequence (P53762 whole entry partner): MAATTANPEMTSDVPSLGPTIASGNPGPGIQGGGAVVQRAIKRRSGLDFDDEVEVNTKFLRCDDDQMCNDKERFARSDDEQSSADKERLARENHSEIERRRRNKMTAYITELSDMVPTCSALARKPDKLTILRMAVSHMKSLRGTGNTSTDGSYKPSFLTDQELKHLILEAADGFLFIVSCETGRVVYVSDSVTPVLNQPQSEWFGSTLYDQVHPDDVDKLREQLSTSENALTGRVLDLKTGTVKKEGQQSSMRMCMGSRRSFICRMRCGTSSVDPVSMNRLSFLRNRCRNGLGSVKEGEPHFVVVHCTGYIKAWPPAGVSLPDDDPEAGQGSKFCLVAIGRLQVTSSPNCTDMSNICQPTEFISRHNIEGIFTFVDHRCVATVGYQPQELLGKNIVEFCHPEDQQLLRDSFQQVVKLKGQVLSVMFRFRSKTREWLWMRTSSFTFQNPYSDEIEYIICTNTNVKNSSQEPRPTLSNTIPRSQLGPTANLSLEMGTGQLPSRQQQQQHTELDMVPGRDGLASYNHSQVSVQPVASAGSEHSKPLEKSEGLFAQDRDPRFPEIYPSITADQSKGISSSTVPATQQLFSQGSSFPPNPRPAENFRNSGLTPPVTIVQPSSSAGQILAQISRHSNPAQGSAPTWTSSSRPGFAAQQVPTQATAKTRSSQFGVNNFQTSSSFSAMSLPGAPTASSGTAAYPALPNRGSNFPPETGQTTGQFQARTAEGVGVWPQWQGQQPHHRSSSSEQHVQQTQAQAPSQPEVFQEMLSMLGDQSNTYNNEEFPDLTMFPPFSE

Row | Structure (SMILES) | ligand-induced AhR DNA binding [1] | change of relative binding affinity versus wild-type AhR [2] | IC50 [2] | change of relative binding affinity versus wild-type AhR [3] | IC50 ([3]; read-out: IC50) | also measured
1 | Clc1cc2oc3cc(Cl)c(Cl)cc3c2cc1Cl [TCDF, 2,3,7,8-tetrachlorodibenzofuran] | little to no |  |  |  |  | 
2 | Clc1ccc(-c2cc(Cl)c(Cl)c(Cl)c2)cc1Cl [PCB126, 3,3′4,4′5-pentachlorobiphenyl] |  | significantly reduced | 74.1 nM |  |  | 
3 | c1ccc2c(c1)cc1ccc3cccc4ccc2c1c34 [BaP, Benzo(a)pyrene] | little to no |  |  |  |  | 
4 | Cc1ccc2cc3c(ccc4ccccc43)c3c2c1CC3 [3MC, 3-methylcholanthrene] |  | decreased | 34.7 nM |  |  | 
5 | c1ccc2c(c1)ccc1cc3c(ccc4ccccc43)cc12 [DBA, dibenz(a,h)anthracene] |  | no significant effect | 7.33 nM | no significant effect | 14.6 nM | IC50 ([3]; read-out: -LogIC50 (converted)): 14.8 nM
6 | O=Cc1c2[nH]c3ccccc3c2cc2[nH]c3ccccc3c12 [FICZ, 6-formylindolo[3,2-b]carbazole] |  |  |  | no significant effect | 4.32 nM | 
7 | O=c1cc(-c2ccccc2)oc2ccc3ccccc3c12 [BNF] |  |  |  | significantly decreased | 40.5 nM | 
8 | Clc1cc2c(cc1Cl)Oc1cc(Cl)c(Cl)cc1O2 [TCDD, 2,3,7,8-tetrachlorodibenzo-p-dioxin] | less than 25% |  |  |  |  | 
